Source: publication PMC9699193, “Activation of a Sweet Taste Receptor by Oleanane-Type Glycosides from Wisteria sinensis” (Molecules, 2022)
Where two headings read alike, the source gives them in different places.

Molecular target: T1, TAS1R2/TAS1R3 sweet taste receptor (Homo sapiens, UniProt Q7RTX0+Q8TE23)
T1 construct: with TAS1R3
T1 sequence (Q8TE23 20-839): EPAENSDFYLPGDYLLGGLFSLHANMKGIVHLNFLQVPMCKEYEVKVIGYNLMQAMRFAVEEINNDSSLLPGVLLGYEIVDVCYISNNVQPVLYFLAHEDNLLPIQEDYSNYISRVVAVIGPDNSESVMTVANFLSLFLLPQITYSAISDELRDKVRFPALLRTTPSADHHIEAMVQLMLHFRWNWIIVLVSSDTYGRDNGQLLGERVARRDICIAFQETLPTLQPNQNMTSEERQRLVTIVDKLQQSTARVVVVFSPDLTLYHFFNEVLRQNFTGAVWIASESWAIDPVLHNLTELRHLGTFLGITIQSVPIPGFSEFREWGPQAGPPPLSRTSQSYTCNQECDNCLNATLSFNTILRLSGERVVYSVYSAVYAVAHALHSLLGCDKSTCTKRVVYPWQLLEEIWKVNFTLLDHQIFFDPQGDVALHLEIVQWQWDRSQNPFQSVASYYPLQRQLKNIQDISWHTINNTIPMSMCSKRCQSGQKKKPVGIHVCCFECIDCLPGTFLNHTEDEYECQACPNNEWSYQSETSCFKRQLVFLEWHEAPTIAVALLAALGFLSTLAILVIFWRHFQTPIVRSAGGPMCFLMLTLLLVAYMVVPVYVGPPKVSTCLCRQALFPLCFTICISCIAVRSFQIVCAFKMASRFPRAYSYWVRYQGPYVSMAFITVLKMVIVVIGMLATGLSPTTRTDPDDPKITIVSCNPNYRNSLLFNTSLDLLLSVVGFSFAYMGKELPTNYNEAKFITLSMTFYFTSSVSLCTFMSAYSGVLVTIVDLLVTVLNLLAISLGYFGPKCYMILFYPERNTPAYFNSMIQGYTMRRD
T1 sequence (Q7RTX0 21-852): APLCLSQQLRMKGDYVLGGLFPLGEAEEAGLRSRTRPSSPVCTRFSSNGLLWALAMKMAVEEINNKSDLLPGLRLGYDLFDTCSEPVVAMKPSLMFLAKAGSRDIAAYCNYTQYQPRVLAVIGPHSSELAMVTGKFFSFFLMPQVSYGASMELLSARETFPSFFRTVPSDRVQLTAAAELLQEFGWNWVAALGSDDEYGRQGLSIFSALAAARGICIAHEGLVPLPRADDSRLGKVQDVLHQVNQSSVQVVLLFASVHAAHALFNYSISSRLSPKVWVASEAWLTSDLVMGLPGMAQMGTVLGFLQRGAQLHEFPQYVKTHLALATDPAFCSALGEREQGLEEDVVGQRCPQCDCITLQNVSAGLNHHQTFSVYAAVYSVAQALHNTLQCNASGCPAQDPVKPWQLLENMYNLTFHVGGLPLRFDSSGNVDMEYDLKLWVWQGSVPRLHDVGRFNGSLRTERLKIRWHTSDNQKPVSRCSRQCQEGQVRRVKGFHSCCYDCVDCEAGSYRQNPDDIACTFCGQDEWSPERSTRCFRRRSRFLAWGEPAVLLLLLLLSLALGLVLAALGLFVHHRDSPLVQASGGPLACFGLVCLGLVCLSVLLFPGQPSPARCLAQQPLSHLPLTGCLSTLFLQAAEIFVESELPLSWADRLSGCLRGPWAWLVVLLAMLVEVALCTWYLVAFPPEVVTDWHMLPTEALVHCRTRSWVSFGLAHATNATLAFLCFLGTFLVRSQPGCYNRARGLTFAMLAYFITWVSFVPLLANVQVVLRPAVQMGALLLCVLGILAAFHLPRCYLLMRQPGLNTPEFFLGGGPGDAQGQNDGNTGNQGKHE
Experiment: GCaMP6S calcium imaging in HEK293T-Gα[…]gust44 cells expressing TAS1R2/TAS1R3, mock-corrected
Assay type: cell-based

Structure (SMILES)	EC50 [µM]	EC50 (read-out: EC50 (converted)) [µM]
C[C@]1(CO)CC(=O)[C@]2(C)CC[C@]3(C)C(=CCC4[C@@]5(C)CC[C@H](OC6O[C@H](C(=O)O)[C@@H](O)[C@H](O)[C@H]6O[C@@H]6OC[C@@H](O)[C@H](O)[C@H]6O)[C@](C)(CO)C5CC[C@]43C)C2C1 (stereo partly drawn) [compound 2, 3-O-β-D-xylopyranosyl-(1→2)-β-D-glucuronopyranosylwistariasapogenol A]	35.9	–
C[C@@H]1O[C@@H](O[C@H]2[C@H](O[C@H]3C(O[C@H]4CC[C@@]5(C)C(CC[C@]6(C)C5CC=C5C7C[C@@](C)(CO)CC(=O)[C@]7(C)CC[C@]56C)[C@@]4(C)CO)O[C@H](C(=O)O)[C@@H](O)[C@@H]3O)OC[C@@H](O)[C@@H]2O)[C@H](O)[C@H](O)[C@H]1O (stereo partly drawn) [compound 3, 3-O-α-L-rhamnopyranosyl-(1→2)-β-D-xylopyranosyl-(1→2)-β-D-glucuronopyranosywistariasapogenol A]	31.3	–
CC1(C)[C@@H](O[C@H]2O[C@H](C(=O)O)[C@@H](O)[C@H](O)[C@H]2O[C@@H]2O[C@H](C(=O)O)[C@@H](O)[C@H](O)[C@H]2O)CC[C@]2(C)[C@H]3C(=O)C=C4[C@@H]5C[C@@](C)(C(=O)O)CC[C@]5(C)CC[C@@]4(C)[C@]3(C)CC[C@@H]12 [glycyrrhizin]	41.3	–
OC[C@H]1O[C@H](O[C@]2(CCl)O[C@H](CCl)[C@@H](O)[C@@H]2O)[C@H](O)[C@@H](O)[C@H]1Cl [sucralose, reference compound]	–	40.2
